Test results: US12005064B2, “Pharmaceutical composition comprising non-ionic surfactants” (priority 2014, dated 2024)

Key:
[1] = Solubility in excipients; assay type: physicochemical; settings: diverse set of excipients, covering an HLB range of 1 to 20 and above
[2] = Solubility in water; assay type: physicochemical; settings: across the whole pH range

Question: What does the source list for `CCc1cc2c(cc1N1CCC(N3CCOCC3)CC1)C(C)(C)c1[nH]c3cc(C#N)ccc3c1C2=O` [9-ethyl-6,6-dimethyl-8-(4-morpholin-4-yl-piperidin-1-yl)-11-oxo-6,11-dihydro-5H-benzo[b]carbazole-3-carbonitrile]?
Answer: solubility in excipients [1]: poorly soluble; solubility in water [2]: practically insoluble in water
